Source: patent US20180085452A1, “MATRIX-EMBEDDED TOLERANCE-PROMOTING ADJUVANTS FOR SUBCUTANEOUS IMMUNOTHERAPY” (Tolerogenics S.a.r.l,, priority 2016, published 2018)
Converted amounts (≈) assume the structure as drawn. “And” between values parts separate entries of the source, which are not always exact repeats. Equal values may be shown once. “Also recorded” adds a separate entry of the source. Read-outs that look alike come from different tables or passages of the source.

Key:
[1] = cited from earlier work
[2] = in vitro release of DexP from PLGA-PEG-PLGA hydrogel; format: physicochemical; details: 37° C., PBS
Method: A 20 mM stock solution of DexP in PBS (10.3 mg/ml; MW 516.4; Sigma-Aldrich) is diluted 1:40 in PBS (final concentration: 0.5 mM), and 20 μl of the diluted stock solution is combined with 160 μl of 25% gel solution and 20 μl of 10× PBS (final concentration of DexP: 0.05 mM).
The mixture of is incubated for 2 minutes at 37° C. to induce gelling and overlayed with 200 μl of 1× PBS. At frequent time points the supernatant is removed by pipetting and stored at 4° C. The removed supernatant is replaced by fresh 200 μl of 1× PBS. Controls of the same concentration of DexP in 1× PBS without gel are incubated and sampled in parallel.
Released DexP is determined with a spectrophotometric method (Singh and Verma, 2008). The method involves oxidation of the corticosteroid by iron (III) and subsequent complexation of iron (II) with potassium hexacynoferate (III), forming a bluish green coloured complex with maximum absorbance at 780 nm (Beer's law range: 10-50 μg/ml; molar absorptivity (M^−1cm^−1): for DexP 0.55×10^4).

mice = details: cited from earlier work
[3] = cited from earlier work; remark: listed apart in the source
[4] = tested on: experimental autoimmune encephalomyelitis (EAE); details: i.p. 5 μg/kg body weight every 2 days; cited from earlier work
[5] = cited from earlier work; remark: listed apart in the source
[6] = rodents; cited from earlier work
rheumatoid arthritis [7] = tested on: rheumatoid arthritis; design: patients going into remission: dose or concentration left out as unconfirmed; details: on methotrexate therapy, cited from earlier work
type 1 diabetes = details: cited from earlier work
rheumatoid arthritis [8] = details: placebo 29.2%, cited from earlier work
patients with RA = details: placebo 22.0%, cited from earlier work
[9] = cited from earlier work; remark: listed apart in the source
phagocytes = details: approximately a threefold increase; cited from earlier work
[10] = during the first 24 hours; EP14075015.9; cited from earlier work
[11] = tested on: TNFR1-mediated activation of NF-κB; details: cited from earlier work
[12] = cited from earlier work; remark: listed apart in the source
calcium metabolism = details: in vivo studies in rats; cited from earlier work
[13] = cited from earlier work; remark: listed apart in the source
rats = details: cited from earlier work

## C[C@@H]1CCN(C(=O)CC#N)C[C@@H]1N(C)c1ncnc2[nH]ccc12 [free base of tofacitinib, tofacitinib]
[1]; DMSO
  solubility in DMSO: 100 mg/mL (≈ 320 mM)
[1]
  solubility in ethanol: 100 mg/mL (≈ 320 mM)
[1]; plain water, estimated
  maximum solubility in plain water: 10-20 μM and 3.12-6.24 μg/ml

## C[C@@H]1C[C@H]2[C@@H]3CCC4=CC(=O)C=C[C@]4(C)[C@@]3(F)[C@@H](O)C[C@]2(C)[C@@]1(O)C(=O)COP(=O)(O)O [DexP, dexamethasone sodium phosphate]
[2]; after 2 days
  hydrogel-embedded DexP released: 80-90%
[2]; within the first 6 hours
  hydrogel-embedded DexP released: 30-50%

## C=C1/C(=C\C=C2/CCC[C@]3(C)[C@@H]([C@H](C)CCCC(C)(C)O)CC[C@@H]23)C[C@@H](O)C[C@@H]1O [calcitriol, 1α,25-dihydroxyvitamin D3]
[1]; 1:5 ethanol:PBS, pH 7.2
  solubility in a 1:5 solution of ethanol:PBS: approx. 0.15 mg/ml
mice; in 0.2 ml of normal saline
  dose that can be administered as a single bolus i.p. injection: up to 500 ng/mouse
mice; single bolus i.p.
  dose above which mice can become hypercalcemic on day 2 or day 3: higher than 750 ng/mouse
[3]
  single oral dose relatively well tolerated (only grade 1 to 2 adverse events): up to 165 μg
[4]
  treated mice in which appearance of paralysis was prevented: 70%

## C=C1CC[C@H](O)C/C1=C/C=C1\CCC[C@]2(C)[C@@H]([C@H](C)CCCC(C)(C)O)CC[C@@H]12 [calcidiol, 25-hydroxyvitamin D3]
[5]; Jones (2008)
  plasma concentration that can produce vitamin D toxicity: above 0.75 μM; also recorded: approx. 300 ng/ml
[5]; Shephard and DeLuca (1980)
  calcidiol level at which toxicity occurs: ≥ 500 ng/ml and approx. 1.25 μM
[6]
  plasma concentrations tolerated with normo-calcemia: 0.25 to 1 µM

## C=C1/C(=C\C=C2/CCC[C@]3(C)[C@@H]([C@H](C)CCCC(C)C)CC[C@@H]23)C[C@@H](O)C[C@@H]1O [alfacalcidiol]
Rheumatoid arthritis [7]; 2 pg/day for 3 months
  patients with improvement of disease activity: 89%
Rheumatoid arthritis [7]; for 3 months
  patients going into remission: 45%

## vitamin D
Type 1 diabetes; doses of exactly 50 μg/day
  relative risk of type 1 diabetes over the subsequent 30 years: 0.22
Type 1 diabetes; doses of over 50 μg/day (2000 IU/d) during infancy
  relative risk of type 1 diabetes over the subsequent 30 years: 0.14

## C[C@@H]1CCN(C(=O)CC#N)C[C@@H]1N(C)c1ncnc2[nH]ccc12 [tofacitinib]
Rheumatoid arthritis [8]; 5 mg twice daily
  ACR20 response rate by week 6: 70.5%
Rheumatoid arthritis [8]; 15 mg twice daily
  ACR20 response rate by week 6: 81.2%
Rheumatoid arthritis [8]; 30 mg twice daily
  ACR20 response rate by week 6: 76.8%
Patients with RA; 3 mg orally twice a day
  ACR20 response at week 12: 39.2%
Patients with RA; 5 mg orally twice a day
  ACR20 response at week 12: 59.2%
Patients with RA; 10 mg orally twice a day
  ACR20 response at week 12: 70.5%
Patients with RA; 15 mg orally twice a day
  ACR20 response at week 12: 71.9%
[9]
  in vivo half-life: 2 to 3 h

## Nc1ncnc2c1ncn2[C@@H]1O[C@H](COP(=O)(O)OP(=O)(O)OP(=O)(O)O)[C@@H](O)[C@H]1O [ATP]
[1]; 25° C.
  solubility in ethanol: less than 1 mg/ml
phagocytes
  concentration effecting maximal migration of phagocytes: about 100 nM
[10]
  released from the hydrogel: approx. 60%

## O=C([O-])c1ccccc1O.[Na+] [sodium salicylate]
[11]
  dose required for inhibition of TNFR1-mediated activation of NF-κB: 10 to 20 mM

## C=C1/C(=C\C=C2/CCC[C@]3(C)[C@@H]([C@H](C)/C=C/[C@@H](O)C4CC4)CC[C@@H]23)C[C@@H](O)C[C@@H]1O [calcipotriol]
[12]; rat, in vivo
  rate of clearance, times higher than for calcitriol: approximately 140 times
[12]; rats
  half-life in circulation (serum half-life): 4 min
Calcium metabolism
  effect on calcium metabolism, times less than calcitriol: 100-200 times
[13]; ointment applied to normal skin
  applied dose absorbed systemically: ~5%
[13]; ointment applied topically to psoriasis plaques
  applied dose absorbed systemically: approximately 6%
rats
  single s.c. dose up to which no death occurred: ≤ 540 μg/kg body weight

## O=c1ccn([C@@H]2O[C@H](COP(=O)(O)OP(=O)(O)OP(=O)(O)O)[C@@H](O)[C@H]2O)c(=O)[nH]1 [UTP]
phagocytes
  concentration effecting maximal migration of phagocytes: about 100 nM
[10]
  released from the hydrogel: approx. 60%
